Measured values taken from patent publication US20230346831A1, “METHODS FOR TREATING […] USING LOW DOSE CARBON MONOXIDE” (priority 2020, published 2023).
“Also recorded” adds a separate entry of the source.

Tests used:
Assay type in all cases: cell-based, human
[1] = system: intracellular heme/hemin levels; experiment: heme colorimetric assay of intracellular heme
Method: Cells were grown to 75-80% confluence in 10-cm cell culture plates and collected in 1 ml cold PBS by cell scraper. 10 µl of the cells was transferred to a new tube for protein lysate preparation and protein concentration measurement. The rest of the cells were lysed in Heme extraction buffer (acetone: HCl: water = 25: 1.3: 5) as described by J. Hooda, M. Alam, & L. Zhang, J Vis Exp, e51579 (2015). Heme levels were measured using a heme colorimetric assay kit (BioVision, Milpitas, CA, Cat. No. K672-100) and normalized by the protein concentration of each sample.
To investigate whether 250 ppm CO induces hypoxia, HiF1α protein levels in low-dose CO-treated MCF7/TGL and MDA-MB-231/TGL cells were examined. Compared to the control cells grown in a standard tissue culture incubator, HiF1α protein levels were not changed after 250 ppm CO treatment for 16 hours (FIG. 4A). To identify genes and pathways that were affected by 250 ppm CO, RNA-Seq and gene set enrichment analysis (GESA) of MCF7 and MDA-MB-231 cells were performed after 16 hours in a CO incubator or in a regular cell culture incubator. […] To assess the intracellular heme levels affected by low-dose CO treatment, oxidized heme levels in the form of hemin (Fe^3+ state) were measured because free heme (Fe^2+ state) is readily oxidized and cannot be measured. […]

MDA-MB-231 cells = experiment: proliferation assay (crystal violet, OD595); details: 16 hours
Method: (§1) Proliferation of different cancer cells under control air or 250 ppm CO treatment with or without supplement of 30 µM hemin was determined. Indicated cell lines cell lines were seeded in the 24-well plate in normal growth media. 16 hours later, cells were fixed, stained with crystal violet, and lysed by methanol. OD595 were measured from triplicates of each cell type. Error bars represent SEM. *: P < 0.05, two-sided t-test. Scale bar, 100 µm.
(§2) 6.5 mm Transwell with 8.0 µm Pore Polycarbonate Membrane Insert (Corning, NY, Cat. No. 3422) was used for the cell migration assay (FIG. 1J). After 16 hours of incubation, cells migrated to the opposite side of the upper chambers were fixed with 4% paraformaldehyde, stained with 0.2% crystal violet for 30 min and counted in five fields under × 20 magnification. In parallel, cells were seeded on 24-well plates for proliferation assay. Cells for proliferation control were fixed with 4% paraformaldehyde, stained with 0.2% crystal violet for 30 min and lysed with methanol to release the crystal violet as described by M. Feoktistova, P. Geserick, & M. Leverkus, Cold Spring Harb Protoc 2016, pdb prot087379 (2016). The optical density was measured at 595 nm (OD595). To supplement heme/hemin in the transwell migration assay, 30 µM hemin (MedChemExpress, Monmouth Junction, NJ, Cat. No. HY-19424) was added to both the cell suspension in the upper chambers and the bottom wells.
To examine whether CO has an effect on tumor cell migration, in vitro transwell migration assays were performed. […] Cell migration through the transwell membrane along a serum gradient (Table 1) after 16 hours in the presence or absence of 250 ppm CO were measured.
5 × 10^4 MDA-MB-231-TGL cells were seeded in the upper chamber of 8-µm porous polycarbonate membranes with DMEM containing 0% FBS, 0.2 mM L-glutamine and 1% penicillin/streptomycin. […] The optical density was measured at 595 nm (OD595).

[2] = system: cancer cells across different cancer types; experiment: in vitro transwell migration assay, statements across cancer types; details: 16 hours
Method: Migration of different cancer cells under control air or 250 ppm CO treatment with or without supplement of 30 µM hemin was determined using in vitro transwell migration chamber with a serum gradient. Indicated cell lines were seeded into the transwell inserts. 16 hours later, cells on the top of the upper chambers were removed, and cells on the bottom surface of the transwell inserts were fixed, stained with crystal violet, and counted from eight randomly picked fields in three independent experiments. Error bars represent SEM. *: P < 0.05, two-sided t-test. Scale bar, 100 µm. […]
6.5 mm Transwell with 8.0 µm Pore Polycarbonate Membrane Insert (Corning, NY, Cat. No. 3422) was used for the cell migration assay (FIG. 1J). After 16 hours of incubation, cells migrated to the opposite side of the upper chambers were fixed with 4% paraformaldehyde, stained with 0.2% crystal violet for 30 min and counted in five fields under × 20 magnification. […] The optical density was measured at 595 nm (OD595). […]
To investigate whether 250 ppm CO induces hypoxia, HiF1α protein levels in low-dose CO-treated MCF7/TGL and MDA-MB-231/TGL cells were examined. […] To assess the intracellular heme levels affected by low-dose CO treatment, oxidized heme levels in the form of hemin (Fe^3+ state) were measured because free heme (Fe^2+ state) is readily oxidized and cannot be measured. […]

22Rv1 cells = experiment: proliferation assay (crystal violet, OD595); details: 16 hours
Method: as §1, §2
(§3) To examine whether CO has an effect on tumor cell migration, in vitro transwell migration assays were performed. Various human cancer cell lines, including 3 types of breast cancer (ER^+: MCF7 cells, HER2^+: HCC1954 cells, triple-negative breast cancer (TNBC): MDA-MB-231 cells), pancreatic ductal adenocarcinoma (PDAC) (8988T cells), pancreatic neuroendocrine tumor (PNET) (CM cells), colon cancer (SW480 cells), prostate cancer (22Rv1 cells), liver cancer (HepG2 cells), and lung cancer (H1975 cells) were seeded in the upper chamber of 8-µm porous polycarbonate membranes. Cell migration through the transwell membrane along a serum gradient (Table 1) after 16 hours in the presence or absence of 250 ppm CO were measured.

SW480 cells = experiment: proliferation assay (crystal violet, OD595); details: 16 hours
Method: as §1, §2, §3

HepG2 cells = experiment: proliferation assay (crystal violet, OD595); details: 16 hours
Method: as §1, §2, §3

H1975 cells = experiment: proliferation assay (crystal violet, OD595); details: 16 hours
Method: as §1, §2, §3

8988T cells = experiment: proliferation assay (crystal violet, OD595); details: 16 hours
Method: as §1, §2, §3

HCC1954 cells = experiment: proliferation assay (crystal violet, OD595); details: 16 hours
Method: as §1, §2, §3

CM cells = experiment: proliferation assay (crystal violet, OD595); details: 16 hours
Method: as §1, §2, §3

MCF7 cells = experiment: proliferation assay (crystal violet, OD595); details: 16 hours
Method: as §1, §2, §3

[3] = 30 µM hemin, with or without 250 ppm CO

## [C-]#[O+] [CO, Carbon monoxide]
[1]; MCF7 and MDA-MB-231 cells, 250 ppm CO
  intracellular heme/hemin levels: significantly reduced
MDA-MB-231 cells; CO, higher density (6.25 × 10^4 or 12.5 × 10^4 cells per 24-well) compared with lower density (3.125 × 10^4 cells per 24-well)
  inhibitory effect on MDA-MB-231 cell proliferation by seeding density: greater inhibitory effect
MDA-MB-231 cells; MDA-MB-231 cells, 250 ppm CO, vs control air
  cell proliferation: did not affect
[2]; 250 ppm CO, transwell with serum gradient, vs control air
  cancer cell migration across different cancer types: decreases
22Rv1 cells; 250 ppm CO, vs control air
  cell proliferation: did not affect
SW480 cells; 250 ppm CO, vs control air
  cell proliferation: did not affect
HepG2 cells; 250 ppm CO, vs control air
  cell proliferation: did not affect
H1975 cells; 250 ppm CO, vs control air
  cell proliferation: did not affect
8988T cells; 250 ppm CO, vs control air
  cell proliferation: did not affect
HCC1954 cells; 250 ppm CO, vs control air
  cell proliferation: did not affect
CM cells; 250 ppm CO, vs control air
  cell proliferation: did not affect
MCF7 cells; MCF7 cells, 250 ppm CO, vs control air
  cell proliferation: did not affect

## Hemin [reference compound]
[1]; 30 µM hemin in the medium, CO-treated cells
  intracellular heme levels with hemin supplement: increased
MDA-MB-231 cells; MDA-MB-231/TGL cells, 30 µM hemin, with or without 250 ppm CO
  cancer cell proliferation with hemin supplement: did not alter
[2]; 30 µM hemin + 250 ppm CO, transwell, cell lines not named at the place (FIGS. 1A-1I; 1C-1E)
  cell migration inhibited by CO (rescue by hemin supplement): partially restored; also recorded: rescued
22Rv1 cells; [3]
  cancer cell proliferation with hemin supplement: did not alter
SW480 cells; [3]
  cancer cell proliferation with hemin supplement: did not alter
HepG2 cells; [3]
  cancer cell proliferation with hemin supplement: did not alter
H1975 cells; [3]
  cancer cell proliferation with hemin supplement: did not alter
8988T cells; [3]
  cancer cell proliferation with hemin supplement: did not alter
HCC1954 cells; [3]
  cancer cell proliferation with hemin supplement: did not alter
CM cells; [3]
  cancer cell proliferation with hemin supplement: did not alter
MCF7 cells; MCF7/TGL cells, 30 µM hemin, with or without 250 ppm CO
  cancer cell proliferation with hemin supplement: did not alter
